How the values were obtained:
Assay type in all cases: binding
EgFABP1 [1] = molecular target: T1, EgFABP1 (Echinococcus granulosus, UniProt Q02970); experiment: fluorescence titration of the anthroyloxy fatty acid with protein
T1 construct: gene FABP1; recombinant EgFABP1 from pET11b in E. coli, delipidated

EgFABP1 [2] = molecular target: T2, EgFABP1 (Echinococcus granulosus, UniProt Q02970); experiment: protection from limited proteolysis (clostripain); GC of co-purified fatty acids
T2 construct: gene FABP1; recombinant EgFABP1 from pET11b in E. coli
T2 sequence (Q02970 1-133): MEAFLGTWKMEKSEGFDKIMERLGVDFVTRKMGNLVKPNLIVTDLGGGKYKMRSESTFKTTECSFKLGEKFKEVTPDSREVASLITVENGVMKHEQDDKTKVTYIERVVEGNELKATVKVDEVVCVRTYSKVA

EgFABP1 [3] = molecular target: T2, EgFABP1; experiment: near-UV CD change; protection from limited proteolysis (clostripain); GC of co-purified fatty acids

Row | SMILES | Kd (EgFABP1 [1]) [nM] | also measured
1 | CCCCCCC(CCCCCCCCCCC(=O)O)OC(=O)c1c2ccccc2cc2ccccc12 (stereo not shown) [12AS, 12-(9-anthroyloxy)stearic acid] | 120 ± 20 | –
2 | O=C(O)CCCCCCCCCCCCCCCOC(=O)c1c2ccccc2cc2ccccc12 [16AP, 16-(9-anthroyloxy)palmitic acid] | 13 ± 6 | –
3 | CCCCCCCCCCCCCC(=O)O [myristic acid] | – | protection from limited proteolysis (clostripain); GC of co-purified fatty acids (EgFABP1 [2]): Results show that binding of FAs gives EgFABP1 significant relative protection against cleavage
4 | CCCCCCCC/C=C\CCCCCCCC(=O)O [oleic acid] | – | near-UV CD change; protection from limited proteolysis (clostripain); GC of co-p (EgFABP1 [3]): the near-UV CD spectra (Figure S1) showed differences upon ligand binding, especially with oleic acid
